Assay results: paper PMC10436262, “Structure-Based Design of Inhibitors of the m^6A-RNA Writer Enzyme METTL3” (ACS Bio & Med Chem Au, 2023)
“And” between values parts separate entries of the source, which are not always exact repeats. Equal entries are not always repeated. Where two headings read alike, the source gives them in different places.

Molecular target: T1, METTL3/METTL14 (Homo sapiens, UniProt Q86U44)
T1 construct: made in house; host or cells: Sf9 insect cells (baculovirus)
Test: METTL3 enzymatic inhibition assay by homogeneous time-resolved fluorescence (HTRF)
Format: biochemical
Conditions: for IC50: HTRF assay; for fold improvement in affinity (IC50) vs compound 4: relative to reference compound 4; for S/R Ratio: ratio of IC50 of S isomer to R isomer
Protocol: Compound potencies were evaluated by using a previously reported METTL3 inhibition assay. […] Tested compounds that inhibit METTL3 decrease the m^6A level and thus reduce the HTRF signal. The biochemical assay was performed, as described previously.[19] The IC50 values derived from fitting a dose–response curve to the data using nonlinear regression. The IC50 values are given as an average of at least two independent measurements for each compound in the text.

[1] = racemic mixture, read-out: IC50
[2] = R isomer, read-out: IC50 (µM) R
[3] = S isomer, read-out: IC50 (µM) S

T1 sequence (Q86U44 whole entry): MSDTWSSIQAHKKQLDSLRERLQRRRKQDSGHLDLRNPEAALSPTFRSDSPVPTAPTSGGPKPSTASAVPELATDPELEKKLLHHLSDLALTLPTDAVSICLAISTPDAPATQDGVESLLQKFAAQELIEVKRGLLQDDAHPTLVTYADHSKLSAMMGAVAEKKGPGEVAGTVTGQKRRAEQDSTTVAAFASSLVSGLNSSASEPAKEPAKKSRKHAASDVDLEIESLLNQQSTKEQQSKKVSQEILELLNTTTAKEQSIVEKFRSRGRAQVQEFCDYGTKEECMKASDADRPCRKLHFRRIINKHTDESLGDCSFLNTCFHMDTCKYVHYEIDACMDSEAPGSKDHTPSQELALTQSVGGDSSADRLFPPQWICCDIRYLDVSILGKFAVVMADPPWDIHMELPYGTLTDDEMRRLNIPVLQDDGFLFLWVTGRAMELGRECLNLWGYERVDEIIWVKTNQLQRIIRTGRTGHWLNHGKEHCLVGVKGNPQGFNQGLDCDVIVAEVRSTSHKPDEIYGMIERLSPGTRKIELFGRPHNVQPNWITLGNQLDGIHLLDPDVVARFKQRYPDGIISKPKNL
T1 sequence (Q9HCE5 whole entry partner): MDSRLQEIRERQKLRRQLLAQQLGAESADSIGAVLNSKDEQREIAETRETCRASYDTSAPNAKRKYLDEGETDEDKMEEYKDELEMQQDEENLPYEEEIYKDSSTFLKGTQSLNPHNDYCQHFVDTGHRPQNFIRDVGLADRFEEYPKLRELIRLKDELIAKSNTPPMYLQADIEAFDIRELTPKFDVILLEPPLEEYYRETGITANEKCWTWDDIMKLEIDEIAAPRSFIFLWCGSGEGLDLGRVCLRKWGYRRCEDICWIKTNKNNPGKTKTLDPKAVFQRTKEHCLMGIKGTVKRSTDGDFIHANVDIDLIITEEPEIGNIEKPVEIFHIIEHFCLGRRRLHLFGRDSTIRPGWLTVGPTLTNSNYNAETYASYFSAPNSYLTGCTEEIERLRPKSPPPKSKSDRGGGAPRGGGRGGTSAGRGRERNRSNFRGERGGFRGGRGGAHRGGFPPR

SMILES: CC1(C)CCN(Cc2ccc(C(=O)NCC3(O)CCCN(c4cc(NCc5cccc6ccccc56)ncn4)C3)cc2)CC1 (stereo not drawn) [compound 15]
- IC50 [1]: 0.77 µM
- fold improvement in affinity (IC50) vs compound 4: 10 fold

SMILES: O=C(NCC1(O)CCCN(c2cc(NCc3ccccc3)ncn2)C1)c1ccc(CN2CC3(CCCC3)C2)cc1 (stereo not drawn) [compound 32]
- IC50 [1]: 7.7 µM

SMILES: CCCCN(Cc1ccc(C(=O)NCC2(O)CCCN(c3cc(NCc4ccccc4)ncn3)C2)cc1)C1CCCCC1 (stereo not drawn) [compound 26]
- IC50 [1]: > 10 µM

SMILES: CNC(=O)c1cccc(CNc2cc(N3CCCC(O)(CNC(=O)c4ccc(CN5CCC(C)(C)CC5)cc4O)C3)ncn2)c1 (stereo not drawn) [compound 51]
- IC50 [1]: 0.19 µM

SMILES: CC1(C)CCN(Cc2ccc(C(=O)NCC3(O)CCCN(c4cc(NCc5ccoc5)ncn4)C3)cc2)CC1 (stereo not drawn) [compound 11]
- IC50 [1]: > 10 µM

SMILES: CCC(CC)CNCc1ccc(C(=O)NCC2(O)CCCN(c3cc(NCc4ccccc4)ncn3)C2)cc1 (stereo not drawn) [compound 28]
- IC50 [1]: 7.4 µM

SMILES: CC(F)C1CCN(Cc2ccc(C(=O)NCC3(O)CCCN(c4cc(NCc5ccccc5)ncn4)C3)cc2)CC1 (stereo not drawn) [compound 21]
- IC50 [1]: 23 µM

SMILES: O=C(NCC1(O)CCCN(c2cc(NCc3ccccc3)ncn2)C1)c1ccc(CN2CC3(CCC3)C2C2CC2)cc1O (stereo not drawn) [compound 53]
- IC50 [1]: 0.84 µM

SMILES: CC(Nc1cc(N2CCCC(O)(CNC(=O)c3ccc(CN4CCC(C)(C)CC4)cc3)C2)ncn1)c1ccccc1 (stereo not drawn) [compound 13]
- IC50 [1]: 12 µM

SMILES: CC1(F)CC12CCN(Cc1ccc(C(=O)NCC3(O)CCCN(c4cc(NCc5ccccc5)ncn4)C3)cc1)CC2 (stereo not drawn) [compound 22]
- IC50 [1]: 23 µM

SMILES: CCC1CCN(Cc2ccc(C(=O)NCC3(O)CCCN(c4cc(NC)ncn4)C3)cc2)CC1 (stereo not drawn) [compound 6]
- IC50 [1]: 230 µM

SMILES: CC(C)C1(O)CN(Cc2ccc(C(=O)NCC3(O)CCCN(c4cc(NCc5ccccc5)ncn4)C3)cc2)C1 (stereo not drawn) [compound 23]
- IC50 [1]: 15 µM

SMILES: O=C(NCC1(O)CCCN(c2cc(NCc3ccccc3)ncn2)C1)c1ccc(CN2CCCCC2)cc1 (stereo not drawn) [compound 40]
- IC50 [1]: 14 µM

SMILES: CC1(C)CCN(Cc2ccc(C(=O)NCC3(O)CCCN(c4cc(NCc5cccc6nc[nH]c56)ncn4)C3)cc2)CC1 (stereo not drawn) [compound 9]
- IC50 [1]: 2.1 µM

SMILES: CC(C)(C)CNCc1ccc(C(=O)NCC2(O)CCCN(c3cc(NCc4ccccc4)ncn3)C2)cc1 (stereo not drawn) [compound 35]
- IC50 [1]: 5 µM

SMILES: CNc1cc(N2CCCC(O)(CNC(=O)c3ccc(CN4CCNCC4)cc3)C2)ncn1 (stereo not drawn) [compound 5]
- IC50 [1]: 179 µM

SMILES: CNc1cc(N2CCCC(O)(CNC(=O)c3ccc(CN4CCC(C)(N)CC4)cc3)C2)ncn1 (stereo not drawn) [compound 7]
- IC50 [1]: 42 µM

SMILES: CNc1cc(N2CCCC(O)(CNC(=O)c3ccc(CN4CCC(C)CC4)cc3)C2)ncn1 (stereo not drawn) [compound 3]
- IC50 [1]: 16 µM

SMILES: CNc1cc(N2CCCC(O)(CNC(=O)c3ccc(CN4CCC(C)(C)CC4)cc3)C2)ncn1 (stereo not drawn) [compound 4]
- IC50 [1]: 8.2 µM
- fold improvement in affinity (IC50) vs compound 1 (relative to hit compound 1): 50 fold and 52.4 fold

SMILES: CC1CCN(Cc2ccc(C(=O)NCC3(O)CCCN(c4cc(NCc5ccccc5)ncn4)C3)cc2)C2CCCCC12 (stereo not drawn) [compound 41]
- IC50 [1]: 12 µM

SMILES: CC1(C)CCN(Cc2ccc3nc(CC4(O)CCCN(c5cc(NCc6ccccc6)ncn5)C4)[nH]c3c2)CC1 (stereo not drawn) [compound 47]
- IC50 [1]: 2.9 µM

SMILES: CCCN(Cc1ccc(C(=O)NCC2(O)CCCN(c3cc(NCc4ccccc4)ncn3)C2)cc1)C1CCCC1 (stereo not drawn) [compound 37]
- IC50 [1]: > 10 µM

SMILES: CC(C)CNCc1ccc(C(=O)NCC2(O)CCCN(c3cc(NCc4ccccc4)ncn3)C2)cc1 (stereo not drawn) [compound 33]
- IC50 [1]: 5.1 µM

SMILES: CSc1cc(CN2CCC(C)(C)CC2)ccc1C(=O)NCC1(O)CCCN(c2cc(NCc3ccccc3)ncn2)C1 (stereo not drawn) [compound 44]
- IC50 [1]: 1.1 µM

SMILES: CCCN(Cc1ccc(C(=O)NCC2(O)CCCN(c3cc(NCc4ccccc4)ncn3)C2)cc1)C1CCCCC1 (stereo not drawn) [compound 38]
- IC50 [1]: > 10 µM

SMILES: CC1(C)CCN(Cc2ccc(C(=O)NCC3(O)CCCN(c4cc(NCc5cccc6sccc56)ncn4)C3)cc2)CC1 (stereo not drawn) [compound 10]
- IC50 [1]: 0.82 µM
- fold improvement in affinity (IC50) vs compound 4: 10 fold

SMILES: CC(C)C1N(Cc2ccc(C(=O)NCC3(O)CCCN(c4cc(NCc5ccccc5)ncn4)C3)cc2)CC12CCC2 (stereo not drawn) [compound 30]
- IC50 [1]: 0.13 µM

SMILES: CC1(C)CCN(Cc2ccc(C(=O)NCC3(O)CCCN(c4cc(NCc5ccccc5)ncn4)C3)cc2)CC1 (stereo not drawn) [compound 16]
- IC50 [2]: 1.2 µM
- IC50 [3]: 7.1 µM
- IC50 [1]: 1.7 µM
- fold difference in activity between R and S configurations (R more active than S): ~6 fold
- S/R Ratio: 5.9
- fold improvement in affinity (IC50) vs compound 4: 4.8 fold

SMILES: CCCCC1(C)CCN(Cc2ccc(C(=O)NCC3(O)CCCN(c4cc(NCc5ccccc5)ncn4)C3)cc2)CC1 (stereo not drawn) [compound 19]
- IC50 [1]: 5.5 µM

SMILES: CCCCN(Cc1ccc(C(=O)NCC2(O)CCCN(c3cc(NCc4ccccc4)ncn3)C2)cc1)C1CCCC1 (stereo not drawn) [compound 39]
- IC50 [1]: > 10 µM

SMILES: CC1(C)CCN(Cc2ccc3c(NCC4(O)CCCN(c5cc(NCc6ccccc6)ncn5)C4)cccc3c2)CC1 (stereo not drawn) [compound 46]
- IC50 [2]: 0.2 µM
- IC50 [3]: 12 µM
- IC50 [1]: 0.36 µM
- S/R Ratio: 60.0
- fold improvement in affinity (IC50) vs compound 16 (relative to reference compound 16): 5 fold and 4.7 fold

SMILES: O=C(NCC1(O)CCCN(c2cc(NCc3ccccc3)ncn2)C1)c1ccc(CNCC2CCC2)cc1 (stereo not drawn) [compound 36]
- IC50 [1]: 5.2 µM

SMILES: CC1(C)CCN(CCCCC(=O)NCC2(O)CCCN(c3cc(NCc4ccccc4)ncn3)C2)CC1 (stereo not drawn) [compound 49]
- IC50 [1]: 60 µM

SMILES: CCC1(C)CCN(Cc2ccc(C(=O)NCC3(O)CCCN(c4cc(NCc5ccccc5)ncn4)C3)cc2)CC1 (stereo not drawn) [compound 18]
- IC50 [1]: 4.7 µM

SMILES: O=C(NCC1(O)CCCN(c2cc(NCc3ccccc3)ncn2)C1)c1ccc(CN2CC3(CCC3)C2)cc1 (stereo not drawn) [compound 29]
- IC50 [2]: 0.53 µM
- IC50 [3]: 1.3 µM
- IC50 [1]: 1.6 µM
- S/R Ratio: 2.5

SMILES: O=C(NCC1(O)CCCN(c2cc(NCc3ccccc3)ncn2)C1)c1ccc(CN2CCC3(CC2)CC3)cc1 (stereo not drawn) [compound 17]
- IC50 [1]: 3.3 µM

SMILES: CNc1cc(N2CCCC(O)(CNC(=O)c3ccc(CN4CCCCC4)cc3)C2)ncn1 (stereo not drawn) [compound 1]
- IC50 [1]: 430 µM

SMILES: CC1(C)CCN(Cc2ccc(C(=O)NCC3(O)CCCN(c4cc(NCc5ccsc5)ncn4)C3)cc2)CC1 (stereo not drawn) [compound 12]
- IC50 [1]: 1.8 µM

SMILES: CC1(C)CN(Cc2ccc(C(=O)NCC3(O)CCCN(c4cc(NCc5ccccc5)ncn4)C3)cc2)C1 (stereo not drawn) [compound 27]
- IC50 [1]: 9.3 µM

SMILES: CC1(CCO)CCN(Cc2ccc(C(=O)NCC3(O)CCCN(c4cc(NCc5ccccc5)ncn4)C3)cc2)CC1 (stereo not drawn) [compound 20]
- IC50 [1]: 17.6 µM

SMILES: CC1(C)CCN(Cc2ccc(N3CC4(CCN(c5cc(NCc6ccccc6)ncn5)CC4)OCC3=O)cn2)CC1 [compound 48]
- IC50 [1]: 5.1 µM

SMILES: CC(C)CCNCc1ccc(C(=O)NCC2(O)CCCN(c3cc(NCc4ccccc4)ncn3)C2)cc1 (stereo not drawn) [compound 34]
- IC50 [1]: 17.7 µM

SMILES: CC1(C)CCN(Cc2ccc(C(=O)NCC3(O)CCCN(c4cc(NCc5ccccc5)ncn4)C3)cn2)CC1 (stereo not drawn) [compound 45]
- IC50 [1]: 10 µM

SMILES: O=C(NCC1(O)CCCN(c2cc(NCc3ccccc3)ncn2)C1)c1ccc(CN2CCCC3CCCCC32)cc1 (stereo not drawn) [compound 42]
- IC50 [1]: 8.4 µM

SMILES: CNc1cc(N2CCCC(O)(CNC(=O)c3ccc(CN4CCC(C)(CN)CC4)cc3)C2)ncn1 (stereo not drawn) [compound 8]
- IC50 [1]: 32 µM

SMILES: CC1(C)CCN(Cc2ccc(C(=O)NCC3(O)CCCN(c4cc(NC(C)(C)c5ccccc5)ncn4)C3)cc2)CC1 (stereo not drawn) [compound 14]
- IC50 [1]: 31 µM

SMILES: CC(C)C1N(Cc2ccc(C(=O)NCC3(O)CCCN(c4cc(NCc5ccccc5)ncn4)C3)c(O)c2)CC12CCC2 (stereo not drawn) [compound 50]
- IC50 [1]: 0.27 µM

SMILES: CC1(O)CCN(Cc2ccc(C(=O)NCC3(O)CCCN(c4cc(NCc5ccccc5)ncn4)C3)cc2)CC1 (stereo not drawn) [compound 24]
- IC50 [1]: 8.4 µM
